Source: US20090275583A1, “ANTIVIRAL COMPOUNDS AND USE THEREOF” (Myriad Genetics, Incorporated, priority 2006, published 2009)
Where two headings read alike, the source gives them in different places.

How the values were obtained:
HIV-1NL4-3 = experiment: P4-MAGI assay; assay type: cell-based
Procedure, shortened: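 Cytotoxicity (TC50, 50% growth inhibition) came from WST-1 in uninfected cells. For antiviral activity, compound at rising concentrations was added immediately after HIV-1NL4-3 inoculation (MOI 1, DEAE-Dextran) of P4 cells, CD4+ HeLa cells expressing β-galactosidase from a minimal HIV-1 LTR upon infection.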

[1] = test system: HIV-1 laboratory strain, NL4-3; experiment: MT-4 cytoprotection assay; assay type: cell-based
Procedure, shortened: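 MT-4 cells mock- or batch-infected with NL4-3 (MOI 0.0005) for 2 h, washed, then cultured 4 days with increasing compound concentrations. Viability read by WST-1 tetrazolium reduction: cytoprotection in infected cells, toxicity in mock-infected cells.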

[2] = Human immunodeficiency virus 1, 24 h, P4 cells, 24 hour incubation, β-galactosidase expression, read-out: P4-MAGI IC50
[3] = Human immunodeficiency virus 1, text statement, less than about 100 nm, read-out: P4-MAGI assay IC50
[4] = Human immunodeficiency virus 1, NL43, MT4, 96 h, MT-4 cells, four days incubation, WST-1 readout, read-out: MT4 EC50
[5] = Human immunodeficiency virus 1, NL43, less than about 100 nm, read-out: MT-4 assay EC50 (concentration of compound that reduces the virus induced cytopathic effect by 50%)

Compound	IC50 (HIV-1NL4-3; [2]) [nM]	IC50 (HIV-1NL4-3; [3]) [nM]	EC50 [1, 4] [nM]	EC50 [1, 5] [nM]
C=C(C)[C@@H]1CC[C@]2(C(=O)NCc3cccc(C(=O)NCC(C)c4cccc(C(=O)O)c4)c3)CC[C@]3(C)C(CCC4[C@@]5(C)CC[C@H](O)C(C)(C)C5CC[C@]43C)C12 (some centres unmarked) [Example 19]	6.2	< 100	19	< 100
C=C(C)[C@@H]1CC[C@]2(C(=O)NCCc3cccc(C(=O)NCC4(CC(=O)O)CCCCC4)c3)CC[C@]3(C)C(CCC4[C@@]5(C)CC[C@H](O)C(C)(C)C5CC[C@]43C)C12 (some centres unmarked) [Example 212]	85		96.5	
C=C(C)[C@@H]1CC[C@]2(C(=O)NCCc3cccc(C(=O)NCC4OC5OC(C)(C)O[C@@H]5[C@@H](O)[C@@H]4O)c3)CC[C@]3(C)C(CCC4[C@@]5(C)CC[C@H](O)C(C)(C)C5CC[C@]43C)C12 (some centres unmarked) [Example 214]	200		214	
C=C(C)[C@@H]1CC[C@]2(C(=O)NCCc3cccc(C(=O)NCc4ccc(C(=O)N[C@@H](C(=O)OC)C(C)C)cc4)c3)CC[C@]3(C)C(CCC4[C@@]5(C)CC[C@H](O)C(C)(C)C5CC[C@]43C)C12 (some centres unmarked) [Example 169]	20		9	
C=C(C)[C@@H]1CC[C@]2(C(=O)NCc3ccc(F)c(C(=O)NCc4ccc(C(=O)O)cc4)c3)CC[C@]3(C)C(CCC4[C@@]5(C)CC[C@H](O)C(C)(C)C5CC[C@]43C)C12 (some centres unmarked) [Example 107]	103		130	
C=C(C)[C@@H]1CC[C@]2(C(=O)NCCc3cccc(C(=O)NCc4ccc(C(=O)NC(CO)C(=O)O)cc4)c3)CC[C@]3(C)C(CCC4[C@@]5(C)CC[C@H](O)C(C)(C)C5CC[C@]43C)C12 (some centres unmarked) [Example 185]	14		36	
C=C(C)[C@@H]1CC[C@]2(C(=O)NCCc3cccc(C(=O)NCc4ccc(C(=O)N[C@H](CCC(=O)OC)C(=O)OC)cn4)c3)CC[C@]3(C)C(CCC4[C@@]5(C)CC[C@H](O)C(C)(C)C5CC[C@]43C)C12 (some centres unmarked) [Example 223]	21.7		21	
C=C(C)[C@@H]1CC[C@]2(C(=O)NCc3cccc(C(=O)NCCc4ccc(C(=O)O)s4)c3)CC[C@]3(C)C(CCC4[C@@]5(C)CC[C@H](O)C(C)(C)C5CC[C@]43C)C12 (some centres unmarked) [Example 48]	29	< 100	63	< 100
C=C(C)[C@@H]1CC[C@]2(C(=O)NCc3cccc(C(=O)NCCc4cccc(C(=O)O)c4F)c3)CC[C@]3(C)C(CCC4[C@@]5(C)CC[C@H](O)C(C)(C)C5CC[C@]43C)C12 (some centres unmarked) [Example 36]	16.4	< 100	8.5	< 100
C=C(C)[C@@H]1CC[C@]2(C(=O)NCc3cccc(C(=O)NCCc4ccc(C(=O)O)c(F)c4)c3)CC[C@]3(C)C(CCC4[C@@]5(C)CC[C@H](O)C(C)(C)C5CC[C@]43C)C12 (some centres unmarked) [Example 40]	19.9	< 100	6.3	< 100
C=C(C)[C@@H]1CC[C@]2(C(=O)NCCc3cccc(C(=O)NCC(N)=O)c3)CC[C@]3(C)C(CCC4[C@@]5(C)CC[C@H](O)C(C)(C)C5CC[C@]43C)C12 (some centres unmarked) [Example 72]	194		10000	
C=C(COC)[C@@H]1CC[C@]2(C(=O)NCCc3cccc(C(=O)NCc4ccc(C(=O)O)cn4)c3)CC[C@]3(C)C(CCC4[C@@]5(C)CC[C@H](O)C(C)(C)C5CC[C@]43C)C12 (some centres unmarked) [Example 266]	8.3		24	
CC(O)(CN1CCCC1)[C@@H]1CC[C@]2(C(=O)NCCc3cccc(C(=O)NCc4ccc(C(=O)O)cn4)c3)CC[C@]3(C)C(CCC4[C@@]5(C)CC[C@H](O)C(C)(C)C5CC[C@]43C)C12 (some centres unmarked) [Example 270]	100		441	
C=C(C)[C@@H]1CC[C@]2(C(=O)NCc3cccc(C(=O)NCc4ccc(OCCCC(=O)O)c(C(=O)O)c4)c3)CC[C@]3(C)C(CCC4[C@@]5(C)CC[C@H](O)C(C)(C)C5CC[C@]43C)C12 (some centres unmarked) [Example 117]	76	< 100	384	
C=C(C)[C@@H]1CC[C@]2(C(=O)NCc3cccc(C(=O)NCc4cccc(C(N)=O)c4)c3)CC[C@]3(C)C(CCC4[C@@]5(C)CC[C@H](O)C(C)(C)C5CC[C@]43C)C12 (some centres unmarked) [Example 23]	52.7		329	
C=C(C)[C@@H]1CC[C@]2(C(=O)NCCc3cccc(C(=O)NC(C)(C)c4ccccn4)c3)CC[C@]3(C)C(CCC4[C@@]5(C)CC[C@H](O)C(C)(C)C5CC[C@]43C)C12 (some centres unmarked) [Example 159]	250		> 10000	
C=C(C)[C@@H]1CC[C@]2(C(=O)NCCc3cccc(C(=O)NCCC(=O)O)c3)CC[C@]3(C)C(CCC4[C@@]5(C)CC[C@H](O)C(C)(C)C5CC[C@]43C)C12 (some centres unmarked) [Example 57]	98.2	< 100	1200	
C=C(C)[C@@H]1CC[C@]2(C(=O)NCc3cccc(C(=O)NCc4ccc(C(=O)O)s4)c3)CC[C@]3(C)C(CCC4[C@@]5(C)CC[C@H](O)C(C)(C)C5CC[C@]43C)C12 (some centres unmarked) [Example 35]	53.2	< 100	85	< 100
C=C(C)[C@@H]1CC[C@]2(C(=O)NCCc3cccc(C(=O)NCc4ccc(C(=O)N[C@H](Cc5ccc(O)cc5)C(=O)OC)cc4)c3)CC[C@]3(C)C(CCC4[C@@]5(C)CC[C@H](O)C(C)(C)C5CC[C@]43C)C12 (some centres unmarked) [Example 165]	13		20	
C=C(C)[C@@H]1CC[C@]2(C(=O)NCCc3cccc(C(=O)NCc4ccc(C#N)cn4)c3)CC[C@]3(C)C(CCC4[C@@]5(C)CC[C@H](O)C(C)(C)C5CC[C@]43C)C12 (some centres unmarked) [Example 252]	25		14	
C=C(CN1CCCC1)[C@@H]1CC[C@]2(C(=O)NCCc3cccc(C(=O)NCc4ccc(C(=O)O)cn4)c3)CC[C@]3(C)C(CCC4[C@@]5(C)CC[C@H](O)C(C)(C)C5CC[C@]43C)C12 (some centres unmarked) [Example 265]	58		172	
C=C(C)[C@@H]1CC[C@]2(C(=O)NCc3cccc(C(=O)NCCc4ccc(C(=O)O)cc4)c3)CC[C@]3(C)C(CCC4[C@@]5(C)CC[C@H](O)C(C)(C)C5CC[C@]43C)C12 (some centres unmarked) [Example 9]	22.3	< 100	5.5	< 100
C=C(C)[C@@H]1CC[C@]2(C(=O)NCCc3cccc(C(=O)NCc4nc(C(=O)OC)co4)c3)CC[C@]3(C)C(CCC4[C@@]5(C)CC[C@H](O)C(C)(C)C5CC[C@]43C)C12 (some centres unmarked) [Example 152]	36		14	
C=C(C)[C@@H]1CC[C@]2(C(=O)NCCc3cccc(C(=O)NCc4ccc(OCCCN5CCN(S(=O)(=O)CC)CC5)c(C(=O)O)c4)c3)CC[C@]3(C)C(CCC4[C@@]5(C)CC[C@H](O)C(C)(C)C5CC[C@]43C)C12 (some centres unmarked) [Example 243]	17.5		26	
C=C(C)[C@@H]1CC[C@]2(C(=O)NCCc3cccc(C(=O)NCc4ccc(C(=O)OC)o4)c3)CC[C@]3(C)C(CCC4[C@@]5(C)CC[C@H](O)C(C)(C)C5CC[C@]43C)C12 (some centres unmarked) [Example 155]	25.6		17	
C=C(C)[C@@H]1CC[C@]2(C(=O)NCCc3cccc(C(=O)NCc4ccc(C(=O)NCc5ncccc5C(=O)O)cc4)c3)CC[C@]3(C)C(CCC4[C@@]5(C)CC[C@H](O)C(C)(C)C5CC[C@]43C)C12 (some centres unmarked) [Example 195]	6		5	
C=C(C)[C@@H]1CC[C@]2(C(=O)NCCc3cccc(C(=O)NCc4ccc(C(=O)NCc5cccnc5C(=O)O)cc4)c3)CC[C@]3(C)C(CCC4[C@@]5(C)CC[C@H](O)C(C)(C)C5CC[C@]43C)C12 (some centres unmarked) [Example 193]	9		2	
